# Assay results taken from US20230257817A1, “IDENTIFICATION OF GENOME REGIONS ASSOCIATED WITH KIDNEY DISEASE AND TREATMENT” (THE RESEARCH INSTITUTE AT NATIONWIDE CHILDREN'S HOSPITAL, priority 2020, published 2023).
# Entries after “also recorded” stand apart in the source; their conditions may differ.
# Tests used:
# [1] = tested on: human podocyte cell line (MS13); assay: Real-time PCR of 17 genes-of-interest in PAN-exposed human podocyte cell line; type: cell-based; conditions: PAN 2.5 and 5 μg/ml, 24 h and 48 h
# Experimental: (§1) The conditionally immortalized human podocyte cell line (MS13) and human primary mesangial cells were cultured as previously described. Sharma et al., J Am Soc Nephrol 28, 2618-2630 (2017). 3×10^4 undifferentiated podocytes were plated on a 6-well plate and were incubated at 37° C. for 12-14 days prior to the start of experiment whereas 1×10^5 mesangial cells were plated on a 6-well plate a day prior to start of experiment. Further, podocytes and mesangial cells were serum starved 0/N with 1% FCS containing RPMI media, before the experiment. The following day, podocytes were exposed to 2.5 and 5 μg/ml of PAN for 24 and 48 hrs whereas in case of mesangial cells, 5 μg/ml of PAN (Sigma; St. Louis, Mo.) was added for 24 and 48 hrs. Cells were lysed in 400 μl of RNA lysis buffer provided by Ambion (#AM1560).
# (§2) Total RNA from the cultured podocytes and mesangial cells was isolated using the miRVANA miRNA isolation kit (Ambion, ThermoScientific) according to the manufacturer's instructions. The RNA was eluted in 40 μl of nuclease free water. The purity and yield of RNA was determined by measuring the absorbance at 230, 260 and 280 nm. Briefly, 1 μg of RNA was subjected to DNase (Ambion, Thermo Fisher Scientific) digestion at 37° C. for 30 min followed by DNase inactivation with 5 mM EDTA at 75° C. for 10 min.
# (§3) […] of total isolated RNA was reverse transcribed to cDNA by iScript cDNA synthesis kit according to manufacturer's instructions (#1708890. Bio-Rad). The resulting cDNA was diluted to 1:5 with nuclease free water. Diluted cDNA was finally used for relative mRNA quantitation of 17 targets-of-interest using SYBER green based Bio-Rad CFX96 Real-Time PCR machine (Bio-Rad Labs, Hercules, Calif.). Both RPL19 and PPIA were used as reference genes.
# glomerular genes = assay: RNA sequencing of glomeruli isolated from PAN-NS rats (glomerular transcriptome); type: in vivo, rat
# Experimental: (§4) Proteinuria was induced in male Wister rats (body weight[…], age˜45-50 d) by single tail vein injection of Puromycin aminonucleoside (PAN, #P7130, Sigma; St. Louis, Mo.) −50 mg/kg, n=4 on Day 0, while the control group received saline injection (n=4). PAN-induced proteinuria was treated daily with methylprednisolone (15 mg/kg, n=4, Solu-Medrol; Pfizer Inc., New York, N.Y.) via intraperitoneal injection or with pioglitazone (10 mg/kg, Actos; Takeda, Deerfield, Ill.) via oral gavage until day 11 of post PAN-injection. Morning spot urine samples were collected on Day 0 (before PAN injection) and day 11 for urinary protein: creatinine ratio (UPC) analysis. Kidneys were harvested at day 11 and were processed for glomerular isolation.
# Glomeruli were isolated using sieving method where kidney cortex was pared using curved scissors into the petri lid with cold PBS, minced well, drained and washed onto pre-moistened No. 80 sieve. Using squeeze bottle, minced kidneys on No. 80 sieve were washed thoroughly and transferred to No. 140 sieve. No. 140 and 200 are stacked together to catch smaller material. Kidney material was then ground through No. 140 sieve with very gentle pressure using bottom of cold round 250 ml beaker. The ground kidney was washed back and forth well over sieve No. 140 onto No. 200. This catch material is the glomeruli. The glomeruli were washed with cold PBS to get rid of any contaminants and the final washed material was collected into labeled 50 ml conical tube. The tube was spun at ˜1500 rpm for 3 min Glomeruli precipitate was then suspended in RLT buffer (Qiagen, Germantown, Md.) containing β-mercaptoethanol (#M6250 Sigma).
# Total RNA from the isolated glomeruli was isolated using the RNeasy mini Kit (Qiagen) according to the manufacturer's instructions. The purity and yield of RNA was determined by measuring the absorbance at 230, 260 and 280 nm. Briefly, 1 ug of RNA was subjected to DNase (Ambion, Thermo Fisher Scientific) digestion at 37° C. for 30 min followed by DNase inactivation with 5 mM EDTA at 75° C. for 10 min.
# RNA quality was assessed using the Agilent 2100 Bioanalyzer and RNA Nano Chip Kit (Agilent Technologies, CA) to ensure that the RNA Integrity Number (RIN) was ≥7. RNA-seq libraries were then generated using TruSeq Standard total RNA with Ribo-Zero Globin Complete kit (Illumina, CA). Briefly, ribosomal RNA (rRNA) was removed from 350 ng of total RNA with biotinylated, target-specific oligos combined with Ribo-Zero rRNA removal beads from the Human/Mouse/Rat Globin kit. To generate directional signals in RNA seq data, libraries were constructed from first strand cDNA using ScriptSeq™ v2 RNA-Seq library preparation kit (Epicentre Biotechnologies, WI). Briefly, 50 ng of rRNA-depleted RNA was fragmented and reverse transcribed using random primers containing a 5′ tagging sequence, followed by 3′ end tagging with a terminal-tagging oligo to yield di-tagged, single-stranded cDNA. Following purification using a magnetic bead-based approach, the di-tagged cDNA was amplified by limit-cycle PCR using primer pairs that anneal to tagging sequences and add adaptor sequences required for sequencing cluster generation. Amplified RNA-seq libraries were purified using AMPure XP System (Beckman Coulter). The quality of libraries was determined via Agilent 2200 TapeStation using High Sensitivity D1000 tape, and quantified using Kappa SYBR®Fast qPCR kit (KAPA Biosystems, Inc, MA). Approximately, 90-125 million paired-end 150 bp reads were generated per sample using the Illumina HiSeq4000 platform. Raw data were converted to FASTQ using Illumina's bc12fastq application. Sequencing adapters matching at least 6 bases were then removed from the reads, as well as low-quality bases (<10) using v1.10 of cutadapt. […]
# rats with PAN-induced NS [2] = assay: PAN-induced nephrotic syndrome rat model, urine protein-to-creatinine ratio; type: in vivo; conditions: for Urine protein to creatinine ratio (UPCR): day 11 after single PAN dose 50 mg/kg IV, MP 15 mg/kg i.p. daily, Pio 10 mg/kg oral gavage daily, n=4 rats per group
# Experimental: as §4
# UPC was measured by Antech Diagnostics (Morrisville, N.C.) using standard techniques that are fully compliant with Good Laboratory practice regulations. See Agrawal et al., Sci Rep 6, 24392 (2016)
# [3] = tested on: human primary mesangial cells; assay: Real-time PCR of 17 genes-of-interest in PAN-exposed human primary mesangial cells; type: cell-based; conditions: PAN 5 μg/ml, 24 h and 48 h
# Experimental: as §1, §2, §3
# rats with PAN-induced NS [4] = conditions: earlier study, Agrawal et al., Sci Rep 6, 24392 (2016); cited from earlier work
# [5] = PAN-NS glomeruli, day 11, FDR<0.05, of 1,872 DEGs
# [6] = overlap analysis, common to both treatments
smiles,measurement,setting,value
"CN(C)c1ncnc2c1ncn2[C@@H]1O[C@H](CO)[C@@H](N)[C@H]1O [PAN, Puromycin aminonucleoside]","CPT1B, PDK4, ANGPTL4, TAGLN and CDKN1A mRNA expression",[1],significant increase in expression
same,"SERPINE1, MMP14, CCL2, LIF, BIRC5 mRNA expression",[1],did not follow the expected pattern
same,LGALS3 mRNA expression,[1]; P=0.0003 vs. controls,induction of expression; also recorded: exclusively enhanced
same,number of glomerular genes significantly downregulated compared to healthy controls,glomerular genes; [5],858
same,number of glomerular genes significantly upregulated compared to healthy controls,glomerular genes; [5],"1,014"
same,Urine protein to creatinine ratio (UPCR),rats with PAN-induced NS [2],57.2 ± 41.6 mg/mg
same,"CPT1B, PDK4, ANGPTL4, TAGLN and CDKN1A mRNA expression",[3],significant increase in expression
same,"SERPINE1, MMP14, CCL2, LIF, BIRC5 mRNA expression",[3],did not follow the expected pattern
same,MMP2 mRNA expression,[3]; P=0.007 vs. controls,induced; also recorded: markedly upregulated
same,ACTA2 mRNA expression,[3]; P=0.045 vs. controls,induced; also recorded: markedly upregulated
"CCc1ccc(CCOc2ccc(CC3SC(=O)NC3=O)cc2)nc1 (stereo not shown) [Pio, pioglitazone]",effect on transcriptional profiles of endothelial cell-specific genes,glomerular genes; 42 endothelial genes,neither MP nor Pio treatment had notable effects
same,PAN-induced gene expression alterations in podocyte- and mesangial cell-specific gene clusters,"glomerular genes; 66 podocyte and 43 mesangial genes, PCA plots",substantially reversed
same,number of the 858 glomerular genes downregulated in PAN-NS significantly ameliorated,glomerular genes; FDR<0.05 vs PAN,144
same,"number of the 1,014 glomerular genes upregulated in PAN-NS significantly ameliorated",glomerular genes; FDR<0.05 vs PAN,346
same,share of the 858 glomerular genes downregulated in PAN-NS significantly ameliorated,glomerular genes; FDR<0.05 vs PAN,17%
same,"share of the 1,014 glomerular genes upregulated in PAN-NS significantly ameliorated",glomerular genes; FDR<0.05 vs PAN,34%
same,PAN-induced dysregulation of glomerular gene sets associated with extracellular matrix and cyclins (GSEA),"glomerular genes; GSEA, FDR<0.05",significantly ameliorated
same,number of DEGs significantly induced by PAN but ameliorated by both MP and Pio,glomerular genes; [6],319
same,number of DEGs significantly suppressed by PAN but ameliorated by both MP and Pio,glomerular genes; [6],126
same,"proteinuria in PAN-induced rat model of NS, previously reported",rats with PAN-induced NS [4],significantly reduced proteinuria; also recorded: significant proteinuria reduction
same,reduction of proteinuria (UPCR) vs PAN,"rats with PAN-induced NS [2]; day 11, PAN+MP or PAN+Pio vs PAN",94%
same,Urine protein to creatinine ratio (UPCR),rats with PAN-induced NS [2],3.45 ± 0.82 mg/mg
